Laboratory results published in article PMC7816587 (Food and Chemical Toxicology, 2021).

Assay: Pharmacokinetic interactions between QPD and lopinavir in rats
Assay type: in vivo
Conditions: male, Sprague-Dawley, rat, plasma, po, 160 mg/kg

Cc1cccc(C)c1OCC(=O)N[C@@H](Cc1ccccc1)[C@@H](O)C[C@H](Cc1ccccc1)NC(=O)[C@H](C(C)C)N1CCCNC1=O [lopinavir]
Tmax: 8 h | AUC(0-inf) (AUC(0-inf) of lopinavir, rats, water + lopinavir 160 mg/kg i.g. (control group)): 6090 ng·h/mL | half-life (t1/2 of lopinavir, rats, water + lopinavir 160 mg/kg i.g. (control group)): 114 min
